# What was measured:
# c-MYC gene expression = assay: Expression level of Wnt/β-catenin target gene c-MYC by real-time PCR in HCT116 cells; format: cell-based, human; details: 10 and 3 μM, 24 hours
# Method: (§1) Effects of the compound of the present invention on Wnt/β-catenin signaling activity were studied using the real-time PCR method as well as using as an indicator changes in expression levels of target genes of the Wnt/β-catenin signaling pathway. To a RPMI 1640 medium (NACALAI TESQUE, INC.), 10% FBS (AusGeneX PTY LTD.) and 1% Penicillin/Streptomycin (NACALAI TESQUE, INC.) were added to prepare a cell culture medium (hereinafter referred to as medium 1). In a T75 flask, HCT116 cells (ATCC No. CCL-247) were added to the medium 1. The cells in the flask were cultured in the 5% CO2 incubator. The cultured HCT116 cells were diluted with the medium 1 so as to have a cell concentration of 1.1×10^5 cells/mL. Into the T75 flask, 13.5 mL of the diluted cells was seeded, followed by culturing overnight in the 5% CO2 incubator. […] Total RNA concentration was measured by a microspectrophotometer (Thermo Fisher Scientific Inc., Nano Drop ND-1000). […] The results were calculated as the expression ratio of the target gene to the endogenous control gene (β-Actin) by the comparative Ct method using a DMSO group as a reference.
# AXIN2 protein expression = assay: Expression level of Wnt/β-catenin target protein AXIN2 by western blotting in HCT116 cells; format: cell-based; details: Homo sapiens, 24 hours, read-out: Inhibition rate (%) AXIN2 protein
# Method: Expression levels of target proteins of the Wnt/β-catenin signaling pathway was analyzed by western blotting method, and effects of the compound of the present invention on Wnt/β-catenin signaling activity were studied by using a change of these levels as an indicator. HCT116 cells cultured in the same manner as in Test Example 2 were diluted with the medium 1 so as to have a cell concentration of 5×10^5 cells/mL, and 5 mL of the diluted cells were seeded into T25 flasks, followed by culturing overnight in the 5% CO2 incubator. Next day, solutions of the compound to be tested obtained by diluting 10 and 3 mM DMSO stock solutions of the compound to be tested 100-fold with the medium 1 were added to each flask so that the amount of the solution in the flask was one tenth of the amount of the final solution (final concentrations of the compound to be tested: 10 and 3 μM). […] Supernatant was recovered by centrifugal operation (15,000 rpm, 10 min.) and amounts of proteins were determined. […] Thereafter, using a CCD camera (GE Healthcare Co., ImageQuant LAS 500), the respective bands were detected by chemiluminescence. The detected bands were quantified by densitometry (GE Healthcare Co., ImageQuant TL v8.1.0.0). Inhibition rates were calculated from the intensities of the bands in the respective groups, with the luminescence of the band of the DMSO added group being 100%. […]
# AXIN2 gene expression = assay: Expression level of Wnt/β-catenin target gene AXIN2 by real-time PCR in HCT116 cells; format: cell-based, human; details: 10 and 3 μM, 24 hours
# Method: as §1
smiles,measurement,setting,value
"O[C@H]1CC[C@@H](Oc2cccc3cnc(Nc4ccc5nc[nH]c5c4)nc23)CC1 [Example 1, cis-4-({2-[(1H-benzo[d]imidazol-6-yl)amino]quinazolyn-8-yl}oxy)cyclohexanol]",c-MYC gene expression,c-MYC gene expression,inhibited the expression of AXIN2 and c-MYC
same,inhibition at 3 µM,"AXIN2 protein expression; HCT-116, 3 μM",46.1%
same,inhibition at 10 µM,"AXIN2 protein expression; HCT-116, 10 μM",66.9%
same,AXIN2 gene expression,AXIN2 gene expression,inhibited the expression of AXIN2 and c-MYC

# From US9682961B2, “Quinazoline derivative” (CARNA BIOSCIENCES, INC., priority 2013, dated 2017)
